Test results: patent US7846434B2, “Materials and methods for improved immunoglycoproteins” (Trubion Pharmaceuticals, Inc., priority 2006, dated 2010)
Values joined by “and” are separate entries in the source; they are usually repeats but may differ in a detail not shown here. Equal values may be shown once.

Legend:
CD37 = test: Binding of TRU-016 to CD37 expressing Daudi cells; set-up: species or system human
Description: The cells are then incubated with a FITC-conjugated goat anti-human IgG Fc specific antibody (Caltag H10501). This antibody will bind to the Fc region of the human IgG chain of TRU-016 bound to the cells. The antibody is diluted 1:50 in FACS buffer and 100 μL is added to each well. The plate is incubated at 4° C. in the dark for 45 minutes. Any unbound FITC-labeled antibody is removed by adding 100 μL of FACS buffer to each well, centrifuging at 250×g for 3 minutes at 15° C. followed by removal of supernatant. This is followed by a second wash with 200 μL/well FACS buffer. The cells are resusupended with 200 μL/well 2% paraformaldehyde and stored at 4° C. overnight. Each sample's bound fluorescence is measured on a BD FACSCalibur flow cytometry system and analyzed using Cell Quest Pro software (Becton Dickinson, ver 5.2). The GeoMean fluorescence intensity for each sample is plotted relative to the TRU-016 concentration. A dose response curve is generated and fit to a 4-parameter logistic (4-PL) curve using the SoftMax Pro software (Molecular Devices, ver 5.0.1). Titrations of TRU-016 are utilized to create a dose response curve of the untreated control and CS treated samples for comparison.

[1] = system: DG44 CHO cells transfected with TRU-016; test: Effect of castanospermine on DG44 CHO TRU-016 production, shake flasks; format: cell-based, Chinese hamster; details: for Average TRU-016 Produced (ug/mL) ± SD: duplicate flasks
Description: Prior to initiation of the experiments, DG44 CHO cells transfected with TRU-016 were grown in shake flasks in Ex-Cell™ 302 CHO serum-free media (SAFC Biosciences) supplemented with 1× non-essential amino acids (MediaTech), 1× sodium pyruvate (MediaTech), 4 mM L-glutamine (MediaTech), 500 nM methotrexate (MP Biomedicals) and 1 mg/L recombinant insulin (Recombulin-GIBCO/Invitrogen Corp.) at 37° C. and 5% carbon dioxide in a humidified incubator. A 200 mM stock concentration of castanospermine (Alexis Biochemicals) was prepared by dilution of the castanospermine in sterile, distilled/deionized water (MediaTech) and filtration through a 13 mm Acrodisc® with a 0.2 μm HT Tuffryn membrane (Pall Corporation). Stock solution was aliquoted into sterile, O-ringed, 0.5 mL microcentrifuge tubes (Fisherbrand, Fisher Scientific) and frozen at −20° C. Approximately 1 hour prior to initiation of experiments, needed aliquots were thawed at room temperature and the contents of each vial mixed well by vortexing.
For each experiment, cells in log phase growth were seeded in the above medium into a total volume of 60 mL in 250 mL shaker flasks at a density of 200,000 cells/mL and CS added at the concentration to be tested. Final CS concentrations of 800 μM, 400 μM, 200 μM, 100 μM, 50 μM, 25 μM and 0 μM were each tested in duplicate flasks. All cultures were incubated at 37° C. and 5% carbon dioxide in a humidified incubator and monitored at least every other day for viable cell density and overall cell viability.
Cultures were harvested on day 8 when overall cell viability was 50-70% (Expt. 1) and 30-50% (Expt. 2). Cells and cellular debris were removed by centrifugation in a Sorvall Super T21 at 3000 rpm for 20 minutes after which the supernatant was sterile filtered through a Millipore Steriflip unit with a 0.22 μm Millipore Express Plus membrane and stored at 2-8° C. until purification.

O[C@H]1[C@H](O)[C@@H](O)CN2CC[C@H](O)[C@H]12 [castanospermine]
binding of TRU-016 to CD37 expressing cells (dose response curves) (CD37; CHO-K1 produced glycovariants vs control): did not alter
binding of TRU-016 to CD37 expressing cells (dose response curves) (CD37; DG44 CHO produced, all CS treated samples vs untreated): did not alter
Average TRU-016 Produced (ug/mL) ± SD ([1]; CS 25 μM): 180.31 ± 6.6 µg/mL
ICA (Integral Cell Area) ([1]; CS 25 μM, listed as CS): 21.4 10^6 cells * days/mL and 21.1 10^6 cells * days/mL
Specific Productivity ([1]; CS 25 μM, listed as CS): 8.22 pg/cell/day and 8.78 pg/cell/day
Average TRU-016 Produced (ug/mL) ± SD ([1]; CS 50 μM): 176.63 ± 1.0 µg/mL
ICA (Integral Cell Area) ([1]; CS 50 μM, listed as CS): 21.6 10^6 cells * days/mL and 21.4 10^6 cells * days/mL
Specific Productivity ([1]; CS 50 μM, listed as CS): 8.15 pg/cell/day and 8.27 pg/cell/day
ICA (Integral Cell Area) ([1]; CS 100 μM): 21.6 10^6 cells * days/mL
Average TRU-016 Produced (ug/mL) ± SD ([1]; CS 100 μM): 161.83 ± 0.1 µg/mL
Specific Productivity ([1]; CS 100 μM, listed as CS): 7.48 pg/cell/day and 7.49 pg/cell/day
Average TRU-016 Produced (ug/mL) ± SD ([1]; CS 200 μM): 143.53 ± 1.4 µg/mL
ICA (Integral Cell Area) ([1]; CS 200 μM, listed as CS): 21.9 10^6 cells * days/mL and 22.0 10^6 cells * days/mL
Specific Productivity ([1]; CS 200 μM, listed as CS): 6.60 pg/cell/day and 6.47 pg/cell/day
Specific Productivity ([1]; CS 400 μM): 5.48 pg/cell/day
Average TRU-016 Produced (ug/mL) ± SD ([1]; CS 400 μM): 124.93 ± 1.4 µg/mL
ICA (Integral Cell Area) ([1]; CS 400 μM, listed as CS): 23.0 10^6 cells * days/mL and 22.4 10^6 cells * days/mL
Specific Productivity ([1]; CS 400 μM, listed as CS): 5.53 pg/cell/day
Average TRU-016 Produced (ug/mL) ± SD ([1]; CS 800 μM): 99.65 ± 6.1 µg/mL
ICA (Integral Cell Area) ([1]; CS 800 μM, listed as CS): 23.9 10^6 cells * days/mL and 23.8 10^6 cells * days/mL
Specific Productivity ([1]; CS 800 μM, listed as CS): 3.99 pg/cell/day and 4.36 pg/cell/day
cell viability and growth (integral cell area) ([1]; CS 25-800 μM): did not appear to be significantly affected
